Data: publication PMC5522529, “Mechanisms of Paradoxical Activation of AMPK by the Kinase Inhibitors SU6656 and Sorafenib” (Cell Chemical Biology, 2017)

What was measured:
[1] = biological target: T1, human α1β1γ1 complex (Homo sapiens, UniProt P54619+Q13131+Q9Y478); test: Allosteric activation of bacterially expressed human α1β1γ1 complex, WT; format: biochemical
T1 construct: made in house; host or cells: Escherichia coli
Source text: (§1) We next tested whether SU6656 activates AMPK by binding at the ADaM site. […] We therefore expressed WT or single (K40A, K42A) or double (K40A/K42A, AA) α1 mutants in the context of the human α1β1γ1 complex (Figure 4A).
(§2) (B) Western blotting of the same preparations as in (A). […] (D) Allosteric activation of WT and mutant α1β1γ1 complexes by MT 63-78, curve fitting as for (C). […] (E) Allosteric activation of WT and mutant α1β1γ1 complexes by AMP. Data were fitted to the equation for activation/inactivation by AMP ([Gowans et al., 2013]). […] (F) Activation of WT and AA mutant by various AMPK activators in HEK293 cells. […] FLAG-tagged complexes were isolated by immunoprecipitation and AMPK activity determined (mean ± SEM, n = 2).
(§3) Endogenous AMPK was immunoprecipitated using the specified antibodies (for total AMPK, an equal mixture of anti-α1 and –α2 antibodies) and assayed at 200 μM ATP ([Hardie et al., 2000], [Towler et al., 2008]) using the AMARA peptide ([Dale et al., 1995]) as substrate, except for assays of allosteric activation by AMP (Figure 5A) where the SAMS peptide was used as substrate with 2 mM ATP ([Gowans et al., 2013]). The AMPK-related kinases SIK1, SIK2, SIK3, SNARK, MARK2/3 and MARK4 were immunoprecipitated and assayed as previously described ([Lizcano et al., 2004]) in lysates of Hela cells stably expressing LKB1 ([Fogarty et al., 2010]). LKB1 was assayed using the LKBtide peptide as substrate ([Sakamoto et al., 2004]).
(§4) Data were fitted to the specified equations by non-linear regression using GraphPad Prism 6 for Mac OSX.

[2] = biological target: T2, human α1β1γ1 complex with K40A mutation in α1 (Homo sapiens, UniProt P54619+Q13131+Q9Y478, K40A); test: Allosteric activation of α1β1γ1 complex, K40A mutant; format: biochemical
T2 construct: made in house; host or cells: Escherichia coli
T2 sequence (Q13131 whole entry K40A): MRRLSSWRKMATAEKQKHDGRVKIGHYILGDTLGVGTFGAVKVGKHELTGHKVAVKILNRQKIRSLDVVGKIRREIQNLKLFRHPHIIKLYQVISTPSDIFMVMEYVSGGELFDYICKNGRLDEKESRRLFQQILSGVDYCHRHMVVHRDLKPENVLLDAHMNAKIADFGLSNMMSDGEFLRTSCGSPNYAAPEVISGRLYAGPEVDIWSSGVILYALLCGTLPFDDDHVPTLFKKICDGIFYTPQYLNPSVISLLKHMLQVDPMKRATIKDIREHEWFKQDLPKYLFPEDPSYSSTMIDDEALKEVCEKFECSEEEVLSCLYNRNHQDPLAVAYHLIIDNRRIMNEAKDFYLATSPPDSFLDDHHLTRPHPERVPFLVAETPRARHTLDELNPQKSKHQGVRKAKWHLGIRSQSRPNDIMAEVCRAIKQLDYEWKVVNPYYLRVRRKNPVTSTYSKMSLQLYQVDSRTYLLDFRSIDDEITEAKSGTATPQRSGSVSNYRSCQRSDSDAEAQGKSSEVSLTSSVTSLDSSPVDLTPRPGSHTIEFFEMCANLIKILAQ
T2 sequence (Q9Y478 whole entry): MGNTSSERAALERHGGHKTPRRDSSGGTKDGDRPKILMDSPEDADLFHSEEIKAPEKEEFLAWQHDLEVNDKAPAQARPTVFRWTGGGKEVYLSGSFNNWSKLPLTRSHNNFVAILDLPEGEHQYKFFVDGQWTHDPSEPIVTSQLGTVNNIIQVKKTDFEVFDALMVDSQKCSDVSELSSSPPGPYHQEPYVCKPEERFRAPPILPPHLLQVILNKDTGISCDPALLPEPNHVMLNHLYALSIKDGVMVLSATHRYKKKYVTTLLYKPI
T2 sequence (P54619 whole entry): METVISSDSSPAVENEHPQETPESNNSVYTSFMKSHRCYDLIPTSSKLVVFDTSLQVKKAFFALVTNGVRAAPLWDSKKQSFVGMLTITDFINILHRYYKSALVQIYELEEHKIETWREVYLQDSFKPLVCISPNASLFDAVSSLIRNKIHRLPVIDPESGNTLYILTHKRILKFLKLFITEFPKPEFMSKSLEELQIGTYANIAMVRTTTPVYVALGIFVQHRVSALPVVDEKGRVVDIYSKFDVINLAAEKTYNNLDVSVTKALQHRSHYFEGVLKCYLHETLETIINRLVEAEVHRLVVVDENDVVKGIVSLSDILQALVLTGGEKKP
Source text: as §1, §2, §3, §4

[3] = biological target: T3, human α1β1γ1 complex with K42A mutation in α1 (Homo sapiens, UniProt P54619+Q13131+Q9Y478, K42A); test: Allosteric activation of α1β1γ1 complex, K42A mutant; format: biochemical
T3 construct: made in house; host or cells: Escherichia coli
T3 sequence (Q13131 whole entry K42A): as the sequence (Q13131 whole entry K40A) above, with A40K, K42A counted along it
T3 sequence (Q9Y478 whole entry): as the sequence (Q9Y478 whole entry) above
T3 sequence (P54619 whole entry): as the sequence (P54619 whole entry) above
Source text: as §1, §2, §3, §4

[4] = biological target: T4, human α1β1γ1 complex with K40A/K42A (AA) mutations in α1 (Homo sapiens, UniProt P54619+Q13131+Q9Y478, K40A/K42A); test: Allosteric activation of α1β1γ1 complex, K40A/K42A (AA) mutant; format: biochemical
T4 construct: made in house; host or cells: Escherichia coli
T4 sequence (Q13131 whole entry K40A/K42A): as the sequence (Q13131 whole entry K40A) above, with K42A counted along it
T4 sequence (Q9Y478 whole entry): as the sequence (Q9Y478 whole entry) above
T4 sequence (P54619 whole entry): as the sequence (P54619 whole entry) above
Source text: as §1, §2, §3, §4

[5] = biological target: T5, AMPK-γ2 (WT) (Homo sapiens, UniProt Q9UGJ0); test: AMPK activity in HEK293 cells expressing WT AMPK-γ2; format: cell-based; settings: 1 hr
T5 construct: expressed in transfected cells; host or cells: Flp-In T-REx 293 (HEK293), tetracycline-inducible
T5 sequence (Q9UGJ0 whole entry): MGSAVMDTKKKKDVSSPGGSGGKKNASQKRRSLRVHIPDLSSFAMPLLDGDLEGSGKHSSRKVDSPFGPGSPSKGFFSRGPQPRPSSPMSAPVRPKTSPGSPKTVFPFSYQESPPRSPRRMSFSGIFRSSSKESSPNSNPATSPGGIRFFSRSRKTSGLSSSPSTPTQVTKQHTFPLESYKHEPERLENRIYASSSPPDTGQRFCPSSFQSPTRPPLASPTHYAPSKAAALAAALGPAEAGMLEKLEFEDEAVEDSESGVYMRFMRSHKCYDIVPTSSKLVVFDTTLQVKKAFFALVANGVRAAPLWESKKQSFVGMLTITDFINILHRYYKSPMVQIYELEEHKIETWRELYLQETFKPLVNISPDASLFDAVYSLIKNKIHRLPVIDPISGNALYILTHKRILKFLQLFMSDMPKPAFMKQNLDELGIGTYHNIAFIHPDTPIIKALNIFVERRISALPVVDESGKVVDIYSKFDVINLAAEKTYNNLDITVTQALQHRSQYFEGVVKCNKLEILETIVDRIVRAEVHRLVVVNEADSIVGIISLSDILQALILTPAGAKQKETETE
Source text: (§5) The next possibility was that, like several other AMPK-activating drugs, SU6656 inhibits mitochondrial ATP synthesis, and thus activates AMPK indirectly by increasing cellular AMP/ADP. To test this, we used cell lines inducibly expressing either WT AMPK-γ2 or an AMP/ADP-resistant R531G (RG) mutant ([Hawley et al., 2010]). […] There were no effects of SU6656 on cellular oxygen uptake, unlike berberine. Subsequent addition of the uncoupler 2,4-dinitrophenol (DNP), which prevents the respiratory chain from being limited by ADP supply, increased oxygen uptake identically in control and SU6656-treated cells but had no effect following berberine, as expected for a complex I inhibitor (Figure S2).
(§6) (B) WT or RG cells were treated as in (A) and nucleotides extracted for analysis (mean ± SD, n = 3). […] (E) (See also Figure S2) Time courses of cellular oxygen uptake before and after addition of the indicated concentrations of sorafenib (SO, μM), SU6656 (100 μM) or phenformin (PHEN, 10 mM) (mean ± SEM, n = 4). (F) Effect of various concentrations of sorafenib or phenformin (10 mM) on activation (top, mean ± SEM, n = 3) or phosphorylation (bottom) of AMPK in cells expressing wild-type AMPK-γ2 (WT) or the R531G mutant AMPK-γ2 (RG). In all panels, asterisks show significant differences from DMSO controls (ns, not significant). In (B), daggers (†) show significant differences between results in WT and RG cells. *p < 0.05, **p < 0.01, ***p < 0.001, ****p < 0.0001, ^††††p < 0.0001.
(§7) HEK-293 cells stably expressing tetracycline-inducible FLAG-tagged human AMPK-γ2, or an R531G mutant, were generated by introducing the corresponding DNAs into Flp-In™ T-REx™ 293 cells ([Auciello et al., 2014]). Expression of the FLAG-tagged constructs was induced for 48 hr using tetracycline (1 μg.ml^-1) prior to addition of compounds under test. Transient transfections were carried out 36-48 hr prior to experiments, using Fugene 6 according to manufacturers’ instructions.

[6] = biological target: T6, AMPK-γ2 R531G (RG) mutant (Homo sapiens, UniProt Q9UGJ0, R531G); test: AMPK activity in HEK293 cells expressing R531G AMPK-γ2; format: cell-based; settings: 1 hr
T6 construct: expressed in transfected cells
T6 sequence (Q9UGJ0 whole entry R531G): as the sequence (Q9UGJ0 whole entry) above, with R531G counted along it
Source text: as §5, §6, §7

[7] = biological target: T7, AMPK-α1 (WT) (Homo sapiens, UniProt Q13131); test: AMPK activity of FLAG-tagged AMPK-α1 (WT) expressed in HEK293 cells; format: cell-based; settings: 1 hr; for AMPK activity: WT FLAG-α1 (comparison with AT mutant); for AMPK activity and Thr172 phosphorylation: WT FLAG-α1, A769662 300 μM, berberine 300 μM, phenformin 10 mM, troglitazone 100 μM, oligomycin 1 μM, SU6656 100 μM
T7 construct: we expressed FLAG-tagged full-length AMPK-α1 either as the WT or the AT mutant; expressed in transfected cells; host or cells: HEK293
T7 sequence (Q13131 whole entry): as the sequence (Q13131 whole entry K40A) above, with A40K counted along it
T7 sequence (P54619 whole entry partner): as the sequence (P54619 whole entry) above
Source text: as §2
(§8) We next expressed the FLAG-tagged WT or AA mutant of AMPK-α1 by transient transfection in HEK293 cells, treated with various agents, and measured AMPK activity in anti-FLAG immunoprecipitates. In Figure 4F, the results are expressed as absolute activities and are accompanied by blots showing Thr172 phosphorylation.
The α1-KD was precipitated using anti-FLAG and endogenous AMPK complexes using anti-α1 antibody, and activity determined. […] (B) Western blots (n = 2) using the indicated antibodies; samples from experiment in (A). (C) DNAs encoding FLAG-tagged AMPK-α1 (WT or AT mutant) were expressed by transient transfection in HEK293 cells, the cells treated with increasing concentrations of SU6656 for 1 hr, AMPK complexes precipitated with anti-FLAG, and activity measured.

[8] = biological target: T8, AMPK-α1 AA mutant (Homo sapiens, UniProt Q13131, K40A/K42A); test: AMPK activity of FLAG-tagged AMPK-α1 K40A/K42A (AA) mutant expressed in HEK293 cells; format: cell-based; settings: AA mutant FLAG-α1; same concentrations, 1 hr
T8 construct: Plasmid encoding full-length human AMPK-α1; expressed in transfected cells; host or cells: HEK293
T8 sequence (Q13131 whole entry K40A/K42A): as the sequence (Q13131 whole entry K40A) above, with K42A counted along it
T8 sequence (P54619 whole entry partner): as the sequence (P54619 whole entry) above
Source text: as §2, §8

[9] = biological target: T9, endogenous full-length α1 complexes (Homo sapiens, UniProt Q13131); test: Activity of endogenous full-length α1 complexes in HEK293 cells; format: cell-based; settings: 1 hr
T9 construct: endogenous in cells
T9 sequence (Q13131 whole entry): as the sequence (Q13131 whole entry K40A) above, with A40K counted along it
T9 sequence (P54619 whole entry partner): as the sequence (P54619 whole entry) above
Source text: (§9) We next expressed an FLAG-tagged α1 kinase domain (α1-KD, residues 1–312) by transient transfection in HEK293 cells, treated the cells with various AMPK activators, and then assayed both the expressed α1-KD (precipitated using anti-FLAG) and endogenous full-length α1 complexes (precipitated using anti-α1 antibodies recognizing an epitope outside the α1-KD). […] This was also observed with A23187, as expected since this ionophore increases intracellular Ca^2+ and activates the alternate upstream kinase CaMKK2.
(§10) The α1-KD was precipitated using anti-FLAG and endogenous AMPK complexes using anti-α1 antibody, and activity determined. Results (mean ± SD, n = 2) are expressed relative to activities in DMSO controls. (B) Western blots (n = 2) using the indicated antibodies; samples from experiment in (A). (C) DNAs encoding FLAG-tagged AMPK-α1 (WT or AT mutant) were expressed by transient transfection in HEK293 cells, the cells treated with increasing concentrations of SU6656 for 1 hr, AMPK complexes precipitated with anti-FLAG, and activity measured. Results (mean ± SD, n = 3) are expressed relative to the DMSO control. […] Results (mean ± SD, n = 3) are expressed relative to the DMSO control. **p < 0.01, ***p < 0.001, ****p < 0.0001, ^†††p < 0.001; ns, not significant.

[10] = biological target: human AMPK-α2 (WT) (Homo sapiens, UniProt P54646); test: AMPK activity of FLAG-tagged WT AMPK-α2 expressed in HEK293 cells; format: cell-based; settings: SU6656 100 μM, phenformin 10 mM, A23187 10 μM, 1 hr
Sequence of human AMPK-α2 (WT) (P54646 whole entry, the tested form may be a part): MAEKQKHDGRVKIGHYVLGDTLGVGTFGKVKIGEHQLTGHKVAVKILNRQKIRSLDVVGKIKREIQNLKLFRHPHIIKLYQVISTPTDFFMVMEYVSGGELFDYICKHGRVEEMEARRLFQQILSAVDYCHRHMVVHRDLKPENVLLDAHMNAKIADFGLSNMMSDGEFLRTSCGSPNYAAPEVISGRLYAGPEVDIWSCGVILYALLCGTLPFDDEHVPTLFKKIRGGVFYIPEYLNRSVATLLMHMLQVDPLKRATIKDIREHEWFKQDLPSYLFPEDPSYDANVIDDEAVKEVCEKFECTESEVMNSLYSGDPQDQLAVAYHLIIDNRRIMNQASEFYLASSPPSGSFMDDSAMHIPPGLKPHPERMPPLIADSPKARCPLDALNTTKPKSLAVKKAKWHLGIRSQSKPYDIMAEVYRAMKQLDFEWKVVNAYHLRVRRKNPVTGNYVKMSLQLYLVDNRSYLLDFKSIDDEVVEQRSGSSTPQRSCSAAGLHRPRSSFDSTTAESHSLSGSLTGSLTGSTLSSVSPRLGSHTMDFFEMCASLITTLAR
Sequence of human AMPK-α2 (WT) (P54619 whole entry partner, the tested form may be a part): as the sequence (P54619 whole entry) above
Protocol: (§11) Top: AMPK activity (mean ± SEM, n = 4); bottom: western blots showing phosphorylation of Thr172 on AMPK, and of ERK1/2, in cells treated with DMSO (control), SU6656 (100 μM), or PP2 (100 nM) (n = 2). (B) As (A), but in SYF cells. (C) HeLa cells were transfected with DNAs encoding GFP alone, or GFP fused to WT, Y261F/Y365F (FF), or Y36F/Y261F/Y365F (FFF) mutants of LKB1; cells were treated with increasing concentrations of SU6656 for 1 hr and AMPK activity determined (mean ± SEM, n = 4). See also Figure S1. (D) HEK293 cells were transfected with DNAs encoding FLAG-tagged AMPK-α2 with or without a Y436F mutation. Cells were incubated with DMSO (control), 100 μM SU6656, 10 mM phenformin, or 10 μM A23187 for 1 hr; AMPK complexes were immunoprecipitated using anti-FLAG antibody and assayed. The top panels show kinase activities (mean ± SD, n = 3); the bottom panels show blots from the same experiment (n = 2). In all panels, asterisks indicate significant differences from DMSO controls; in (D), there were no significant differences between the WT and Y463F mutant. **p < 0.01, ****p < 0.0001.

[11] = biological target: T10, α1 kinase domain (α1-KD, residues 1–312) (Homo sapiens, UniProt Q13131); test: Activity of FLAG-tagged α1 kinase domain expressed in HEK293 cells; format: cell-based; settings: 1 hr
T10 construct: amplifying residues 1-312 with an N-terminal FLAG-tag; expressed in transfected cells; host or cells: HEK293 (transient transfection, pcDNA5 FRT)
T10 sequence (Q13131 1-312): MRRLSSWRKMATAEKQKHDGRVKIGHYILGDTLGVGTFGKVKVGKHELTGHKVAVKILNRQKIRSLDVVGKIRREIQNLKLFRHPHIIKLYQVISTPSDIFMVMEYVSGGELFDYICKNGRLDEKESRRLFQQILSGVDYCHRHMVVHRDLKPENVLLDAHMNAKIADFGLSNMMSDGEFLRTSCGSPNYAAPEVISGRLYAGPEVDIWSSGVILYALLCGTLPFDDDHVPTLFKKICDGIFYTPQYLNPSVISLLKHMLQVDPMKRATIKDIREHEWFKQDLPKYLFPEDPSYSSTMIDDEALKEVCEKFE
Source text: as §9, §10
A plasmid encoding the AMPK-α2 kinase domain (α2-KD) was made by amplifying residues 1-310 with 5' BamH1 and 3' Xho1 sites, the resulting PCR product was cloned into pGEX6P2. Point mutations were generated using the Quikchange II site-directed mutagenesis kit (Stratagene) and confirmed by DNA sequencing.

[12] = biological target: T11, AMPK-α1 AT mutant (Homo sapiens, UniProt Q13131, A167T); test: AMPK activity of FLAG-tagged AMPK-α1 AT mutant expressed in HEK293 cells; format: cell-based; settings: AT mutant FLAG-α1, 1 hr
T11 construct: we expressed FLAG-tagged full-length AMPK-α1 either as the WT or the AT mutant; expressed in transfected cells; host or cells: HEK293 (transient transfection)
T11 sequence (Q13131 whole entry A167T): as the sequence (Q13131 whole entry K40A) above, with A40K, A167T counted along it
T11 sequence (P54619 whole entry partner): as the sequence (P54619 whole entry) above
Source text: as §10
To confirm that it acted by binding at the catalytic site, we expressed FLAG-tagged full-length AMPK-α1 either as the WT or the AT mutant.

[13] = biological target: T12, human AMPK-α2 Y436F mutant (Homo sapiens, UniProt P54646, Y436F); test: AMPK activity of FLAG-tagged Y436F AMPK-α2 expressed in HEK293 cells; format: cell-based; settings: SU6656 100 μM, phenformin 10 mM, A23187 10 μM, 1 hr
T12 construct: expressed in transfected cells; host or cells: HEK293 (transient transfection)
T12 sequence (P54646 whole entry Y436F): as the sequence (P54646 whole entry, the tested form may be a part) above, with Y436F counted along it
T12 sequence (P54619 whole entry partner): as the sequence (P54619 whole entry) above
Protocol: as §11

T1 sequence (Q13131 whole entry): as the sequence (Q13131 whole entry K40A) above, with A40K counted along it
T1 sequence (Q9Y478 whole entry): as the sequence (Q9Y478 whole entry) above
T1 sequence (P54619 whole entry): as the sequence (P54619 whole entry) above

| Activation (maximal allosteric activation) ([1]; not phosphorylated on Thr172, relative to basal activity) [fold] | EC50 ([1]; read-out: EC50 (concentration causing half-maximal effect)) [nM] | Activation (maximal allosteric activation) [2] [fold] | EC50 [2] [nM] | Activation (maximal allosteric activation) [3] [fold] | Activation (maximal allosteric activation) [4] [fold] | EC50 [4] [nM] | AMPK activity [5] | AMPK activity [6] | AMPK activity [7] | effect of AA mutation on AMPK activation [8] | kinase activity / Thr172 phosphorylation [9] | AMPK activity in anti-FLAG immunoprecipitates [10] | AMPK activity [12] | AMPK activation response with Y436F mutation [13] | Structure (SMILES) | AMPK activity and Thr172 phosphorylation [7] | kinase activity / Thr172 phosphorylation [11] |
| --- | --- | --- | --- | --- | --- | --- | --- | --- | --- | --- | --- | --- | --- | --- | --- | --- | --- |
| 38 ± 1 | 1000 ± 100 | 18 ± 0.7 | 4000 ± 700 | 21 ± 0.6 | 1.0 ± 0.03 | 1 ± 2 | activated AMPK in both | activated AMPK in both | did not cause a significant activation | completely prevented | not statistically significant | – | – | – | N#Cc1c(O)c2c(-c3ccc(-c4ccccc4O)cc3)csc2[nH]c1=O [A769662] | activated AMPK and caused Thr172 phosphorylation | – |
| – | – | – | – | – | – | – | – | – | activated equally well | abolished | doing this with the endogenous complexes | all activated AMPK | activated equally well | unaffected by the Y436F mutation | [H]/N=C(/N)N/C(=N/[H])NCCc1ccccc1 [phenformin] | activated AMPK and caused Thr172 phosphorylation | failed to activate or cause Thr172 phosphorylation |
